According to patent US6737383B1, “Herbicidal oxadiazolidines” (priority 1999, dated 2004):

What was measured:
[1] = system: wheat; assay: Test B pre/postemergence wheat; type: in vivo, Triticum aestivum
Outline: (§1)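 Response is a visual 0-to-10 score relative to untreated plants, where 0 means no effect and 10 means complete control, taken twelve to sixteen days after application. Treatments went onto soil at planting and onto foliage of 1- to 4-leaf plants, using a surfactant-containing non-phytotoxic solvent.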

[2] = system: giant foxtail; assay: Test B pre/postemergence giant foxtail; type: in vivo, Setaria faberii
Outline: as §1

[3] = system: crabgrass; assay: Test B pre/postemergence crabgrass; type: in vivo, Digitaria sanguinalis
Outline: as §1

[4] = system: soybean; assay: Test B pre/postemergence soybean; type: in vivo, Glycine max
Outline: as §1

[5] = system: pigweed; assay: Test B pre/postemergence pigweed; type: in vivo, Amaranthus retroflexus
Outline: as §1

[6] = system: corn; assay: Test B pre/postemergence corn; type: in vivo, Zea mays
Outline: as §1

[7] = system: sugar beet; assay: Test B pre/postemergence sugar beet; type: in vivo, Beta vulgaris
Outline: as §1

[8] = system: rape; assay: Test B pre/postemergence rape; type: in vivo, Brassica napus
Outline: as §1

[9] = system: smallflower flatsedge; assay: Test B flood test smallflower flatsedge; type: in vivo, Cyperus difformis
Outline: (§2)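 Read-out is a visual response score from 0 (no effect) to 10 (complete control), assigned by comparison with untreated controls. Treatment was applied at the 2-leaf stage, and plants stayed in the greenhouse for twelve to sixteen days before scoring.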

[10] = system: duck salad; assay: Test B flood test duck salad; type: in vivo, Heteranthera limosa
Outline: as §2

[11] = system: wild oat; assay: Test B pre/postemergence wild oat; type: in vivo, Avena fatua
Outline: as §1

[12] = system: morningglory; assay: Test B pre/postemergence morningglory; type: in vivo, Ipomoea hederacea
Outline: as §1

[13] = system: purple nutsedge; assay: Test B pre/postemergence purple nutsedge; type: in vivo, Cyperus rotundus
Outline: as §1

[14] = system: velvetleaf; assay: Test B pre/postemergence velvetleaf; type: in vivo, Abutilon theophrasti
Outline: as §1

[15] = system: cocklebur; assay: Test B pre/postemergence cocklebur; type: in vivo, Xanthium strumarium
Outline: as §1

[16] = system: rice; assay: Test B flood test rice; type: in vivo, Oryza sativa
Outline: as §2

[17] = Preemergence, Rate 62 g/ha, scale of 0 to 10 where 0 is no effect and 10 is complete control
[18] = Preemergence, Rate 250 g/ha, scale 0 to 10, 0 is no effect, 10 is complete control
[19] = Preemergence, Rate 500 g/ha, scale 0 to 10 (0 no effect, 10 complete control)
[20] = Rate 62 g/ha, Postemergence, scale of 0 to 10 where 0 is no effect and 10 is complete control
[21] = Rate 125 g/ha, Postemergence, scale 0 to 10
[22] = Preemergence, Rate 125 g/ha, 0 is no effect, 10 is complete control
[23] = Rate 500 g/ha, Postemergence, scale 0 to 10
[24] = Rate 62 g/ha, headed Pre-emergence (flood test species), scale 0 to 10 (0 no effect, 10 complete control)
[25] = Rate 125 g/ha, Pre-emergence, flood test species, scale 0 to 10 where 0 is no effect and 10 is complete control
[26] = Rate 250 g/ha, Pre-emergence, flood-test species, scale 0 to 10, 0 is no effect, 10 is complete control
[27] = Rate 500 g/ha, headed Pre-emergence (flood test species), scale 0 to 10 (0 no effect, 10 complete control)

## CCN(Cc1ccncc1)C(=O)n1oc(=O)n(C(C)C)c1=O [Compound 189]
[1]; [17]
  Wheat plant response rating: 0
[1]; [18]
  Wheat plant response rating: 0
[1]; [19]
  Wheat plant response rating: 2
[1]; [20]
  Wheat plant response rating: 0
[1]; [21]
  Wheat plant response rating: 0
[1]; Rate 250 g/ha, Postemergence
  Plant response rating (0 to 10; 0 is no effect, 10 is complete control), Wheat: 0
[2]; [17]
  Giant foxtail plant response rating: 0
[2]; [22]
  Giant foxtail plant response rating (0 to 10 scale): 0
[2]; [18]
  Giant foxtail plant response rating: 3
[2]; [19]
  Giant foxtail plant response rating: 6
[2]; [20]
  Giant foxtail plant response rating: 0
[2]; [21]
  Giant foxtail plant response rating: 0
[2]; Rate 250 g/ha, Postemergence
  Plant response rating (0 to 10; 0 is no effect, 10 is complete control), Giant foxtail: 0
[2]; [23]
  Giant foxtail plant response rating: 0
[3]; [17]
  Crabgrass plant response rating: 0
[3]; [22]
  Crabgrass plant response rating (0 to 10 scale): 0
[3]; [18]
  Crabgrass plant response rating: 0
[3]; [19]
  Crabgrass plant response rating: 3
[3]; [20]
  Crabgrass plant response rating: 0
[3]; [21]
  Crabgrass plant response rating: 0
[3]; Rate 250 g/ha, Postemergence
  Plant response rating (0 to 10; 0 is no effect, 10 is complete control), Crabgrass: 0
[3]; [23]
  Crabgrass plant response rating: 0
[4]; [17]
  Soybean plant response rating: 0
[4]; [22]
  Soybean plant response rating (0 to 10 scale): 0
[4]; [18]
  Soybean plant response rating: 0
[4]; [19]
  Soybean plant response rating: 0
[4]; [20]
  Soybean plant response rating: 0
[4]; [21]
  Soybean plant response rating: 0
[4]; Rate 250 g/ha, Postemergence
  Plant response rating (0 to 10; 0 is no effect, 10 is complete control), Soybean: 0
[4]; [23]
  Soybean plant response rating: 0
[5]; [17]
  Redroot pigweed plant response rating: 0
[5]; [22]
  Redroot pigweed plant response rating (0 to 10 scale): 0
[5]; [18]
  Redroot pigweed plant response rating: 0
[5]; [19]
  Redroot pigweed plant response rating: 0
[5]; [20]
  Redroot pigweed plant response rating: 0
[5]; [21]
  Redroot pigweed plant response rating: 0
[5]; Rate 250 g/ha, Postemergence
  Plant response rating (0 to 10; 0 is no effect, 10 is complete control), Redroot pigweed: 0
[5]; [23]
  Redroot pigweed plant response rating: 0
[6]; [17]
  Corn plant response rating: 0
[6]; [22]
  Corn plant response rating (0 to 10 scale): 0
[6]; [18]
  Corn plant response rating: 0
[6]; [19]
  Corn plant response rating: 0
[6]; [20]
  Corn plant response rating: 0
[6]; [21]
  Corn plant response rating: 0
[6]; Rate 250 g/ha, Postemergence
  Plant response rating (0 to 10; 0 is no effect, 10 is complete control), Corn: 0
[6]; [23]
  Corn plant response rating: 0
[7]; [17]
  Sugarbeets plant response rating: 0
[7]; [22]
  Sugarbeets plant response rating (0 to 10 scale): 0
[7]; [18]
  Sugarbeets plant response rating: 0
[7]; [19]
  Sugarbeets plant response rating: 0
[7]; [20]
  Sugarbeets plant response rating: 0
[7]; [21]
  Sugarbeets plant response rating: 0
[7]; Rate 250 g/ha, Postemergence
  Plant response rating (0 to 10; 0 is no effect, 10 is complete control), Sugarbeets: 0
[7]; [23]
  Sugarbeets plant response rating: 0
[8]; [17]
  Rape plant response rating: 0
[8]; [22]
  Rape plant response rating (0 to 10 scale): 0
[8]; [18]
  Rape plant response rating: 0
[8]; [19]
  Rape plant response rating: 0
[8]; [20]
  Rape plant response rating: 0
[8]; [21]
  Rape plant response rating: 0
[8]; Rate 250 g/ha, Postemergence
  Plant response rating (0 to 10; 0 is no effect, 10 is complete control), Rape: 0
[8]; [23]
  Rape plant response rating: 0
[9]; [24]
  S. Flatsedge plant response rating: 0
[9]; [25]
  S. Flatsedge plant response rating: 0
[9]; [26]
  S. Flatsedge plant response rating: 0
[9]; Rate 500 g/ha, Pre-emergence, flood test species, scale 0 to 10 (0 no effect, 10 complete control)
  S. Flatsedge plant response rating: 0
[10]; [24]
  Ducksalad plant response rating: 0
[10]; [25]
  Ducksalad plant response rating: 0
[10]; [26]
  Ducksalad plant response rating: 0
[10]; [27]
  Plant response rating, Ducksalad: 0
[11]; [17]
  Wild oats plant response rating: 0
[11]; [18]
  Wild oats plant response rating: 3
[11]; [19]
  Wild oats plant response rating: 3
[11]; [20]
  Wild oats plant response rating: 0
[11]; [21]
  Wild oats plant response rating: 0
[11]; Rate 250 g/ha, Postemergence
  Plant response rating (0 to 10; 0 is no effect, 10 is complete control), Wild oats: 0
[12]; [17]
  Morningglory plant response rating: 0
[12]; [22]
  Morningglory plant response rating (0 to 10 scale): 0
[12]; [18]
  Morningglory plant response rating: 0
[12]; [19]
  Morningglory plant response rating: 0
[12]; [20]
  Morningglory plant response rating: 0
[12]; [21]
  Morningglory plant response rating: 0
[12]; Rate 250 g/ha, Postemergence
  Plant response rating (0 to 10; 0 is no effect, 10 is complete control), Morningglory: 0
[12]; [23]
  Morningglory plant response rating: 0
[13]; [17]
  Nutsedge plant response rating: 0
[13]; [22]
  Nutsedge plant response rating (0 to 10 scale): 0
[13]; [18]
  Nutsedge plant response rating: 0
[13]; [19]
  Nutsedge plant response rating: 0
[13]; [20]
  Nutsedge plant response rating: 0
[13]; [21]
  Nutsedge plant response rating: 0
[13]; Rate 250 g/ha, Postemergence
  Plant response rating (0 to 10; 0 is no effect, 10 is complete control), Nutsedge: 0
[13]; [23]
  Nutsedge plant response rating: 0
[14]; [17]
  Velvetleaf plant response rating: 0
[14]; [18]
  Velvetleaf plant response rating: 0
[14]; [19]
  Velvetleaf plant response rating: 0
[14]; [20]
  Velvetleaf plant response rating: 0
[14]; [21]
  Velvetleaf plant response rating: 0
[14]; Rate 250 g/ha, Postemergence
  Plant response rating (0 to 10; 0 is no effect, 10 is complete control), Velvetleaf: 0
[15]; [22]
  Cocklebur plant response rating (0 to 10 scale): 0
[15]; [18]
  Cocklebur plant response rating: 0
[15]; [19]
  Cocklebur plant response rating: 0
[15]; [20]
  Cocklebur plant response rating: 0
[15]; [21]
  Cocklebur plant response rating: 0
[15]; Rate 250 g/ha, Postemergence
  Plant response rating (0 to 10; 0 is no effect, 10 is complete control), Cocklebur: 0
[15]; [23]
  Cocklebur plant response rating: 0
[16]; [24]
  Rice plant response rating: 0
[16]; [25]
  Rice plant response rating: 0
[16]; [26]
  Rice plant response rating: 0
[16]; [27]
  Plant response rating, Rice: 0
